Laboratory results reported in patent US10617677B2, “Nuclear transport modulators and uses thereof” (Biogen MA Inc., priority 2012, dated 2020).

Legend:
NF-κB = NF-κB transcriptional activity in TNFα-induced HeLa cells; type: cell-based; conditions: Homo sapiens, 1 h pre-treatment, then 4 h of 20 ng/mL TNFα, average of three experiments, read-out: IC50, inhibition of NF-κB transcriptional activity
Procedure: The compounds were tested on HeLa (adenocarcinoma) cells to quantify their ability to inhibit NF-κB transcriptional activity. NF-κB activity was induced in HeLa cells by TNFα, and then the compounds were added to inhibit the induced NF-κB activity. Half maximal inhibitory concentrations (IC50) of several compounds, namely Compound 1, Compound 2 and Compound 12, were determined by dose response studies.
HeLa cells were plated in a 12-well plate (200,000 cells/well) and cultured in Eagle's Minimal Essential medium (EMEM) from Lonza supplemented with 10% heat-inactivated fetal bovine serum (Invitrogen) and 50 μg/mL penicillin/streptomycin (Invitrogen), and were left overnight to attach. Cells were pre-treated with serial diluted (started at 30 µM; 1:3 dilution) compounds for 1 h and then exposed to 20 ng/mL TNFα (Peprotech) for 4 h in serum free media. After the treatment, the cells were washed with PBS (Invitrogen), and lysed with RIPA buffer (Themo Scientific). The transcription activity of NF-κB in the cells was measured by Chemiluminescent Transcription Factor Assay kit (Thermo Scientific Catalog #89859), according to the manufacturer's instruction. Briefly, 1.5 mg/mL of RIPA lysed whole cell extract from each treatment were incubated in a 96-well plate bound with NF-κB biotinylated-consensus sequence. The active NF-κB transcription factor bound to the consensus sequence was incubated with NF-κB p65 primary antibody and then with a secondary HRP-conjugated antibody. A chemiluminescent substrate was added to the wells and the resulting signal was detected using a luminometer. Three separate experiments were analyzed for each concentration of the IC50 curves. XLFit model 205 was used to calculate IC50 curves.
Inhibition of NF-κB transcriptional activity was measured by serial dilutions of Compound 1, Compound 2 and Compound 12 after 1 h of compound pre-treatment followed by 4 h of 20 ng/mL TNFα exposure. Three independent experiments were scored for each concentration, with the average being presented here.

[1] = Pharmacokinetics (plasma AUCInf) in mice; type: in vivo; conditions: 10 mg/kg po
Procedure: Blood was collected from mice (N=3) to contribute to the total of 10 time points (pre-dose, 5 min, 15 min, 30 min, 1 hour, 2 hours, 4 hours, 8 hours, 12 hours and 24 hours post dose). Mice were bled on a rotating basis, each mouse contributing 3 time points to the blood collection. At the designated time points, animals were anaesthetized under isoflurane, and approximately 110 μL of blood per time point was collected via retro-orbital puncture into pre-cooled K2EDTA (anti-coagulant) tubes. Blood samples were put on wet ice and centrifuged (2000 g, 5 min at 4° C.) to obtain plasma within 30 minutes of sample collection. All samples were stored frozen at approximately −80° C. until analysis. Prior to analysis, samples were mixed with internal standard (dexamethasone) in acetonitrile, vortexed, centrifuged, and supernatant was injected for analysis. Concentration of compounds in plasma was determined using LC-MS-MS instrumentation (API 4000, Triple Quadruple with electrospray ionization; Acuity Ultra Performance Liquid Chromatography column C18, with MeOH and formic acid as organic solvents). PK parameters including but not limited to Tmax, Cmax, t1/2, AUClast, AUCInf were calculated using WinNonlin Professional 6.2 software package, non-compartmental pharmacokinetic model NCA200.

[2] = Brain to plasma ratio (B:P) in mice; type: in vivo
Procedure: Brain tissue following collection was rinsed with cold saline, dried on filter paper, weighed and snap-frozen by placing on dry ice. All samples were stored frozen at approximately −80° C. until analysis. […] Plasma samples were treated with the identical method (except homogenization step) and concentration of compound in either matrix was calculated based on the generated standard curves.

A549 xenograft tumors = assay: A549 lung carcinoma xenograft in SCID mice; type: in vivo; conditions: for mean tumor volume: 5 mg/kg IP Days 1, 15
Procedure: The A549 cell line was derived from explant culture of alveolar carcinoma tissue from a person. The cells were grown in Ham's F12-K tissue culture media with 10% fetal calf serum and 1% penicillin/streptomycin. Cells were routinely trypsinized and passaged 1:10. Thirty-two (32) female CB-17 SCID mice (Charles River Labs strain code 236), aged 5 to 6 weeks were used with a mean pre-treatment body weight of 16.3 grams. Mice were divided into four (4) groups of eight (8) prior to the initiation of treatment based on tumor volume. On the day of implantation, cells were washed in PBS, trypsinized and resuspended in complete media to a density of 2×10^7 cells/mL prior to being mixed with an equal volume of Matrigel. This mixture was then inoculated subcutaneously into mice in a volume of 0.1 mL using a 23G needle.
Animal weights and condition were recorded daily, and tumors were measured on Mondays, Wednesdays and Fridays with micro-calipers, and tumor volume was calculated as (length×width×width)/2.
Animals with weight loss of more than 20% of their starting weight were euthanized. Mice with weight loss of more than 15% of their starting weight were not treated again until weight loss recovered to less than 5% of their starting weight. Any animals with a tumor volume of more than 1500 mm^3 were euthanized.
Dosing solutions were prepared fresh on each day of dosing. Compound 2 was supplied as a lyophilized powder containing 69.61% Compound 2 with the balance made up of Pluronic F-68 and PVP K29/32. This was prepared by dissolving the lyophilized powder in sterile water. Cisplatin was dissolved at 5 mg/mL in DMSO and diluted 1:10 in sterile water for injection. All test articles were administered in a volume of 0.1 mL/10 g body weight.
Statistical differences between treatment groups were determined using Mann-Whitney Rank Sum or ANOVA tests with a critical value of 0.05.

IMQ-induced psoriasis = assay: Imiquimod (IMQ)-induced dermal inflammation/psoriasis model, Study 2; type: in vivo, mice; conditions: Compound 2 2.5 mg/kg, cyclophosphamide 10 mg/kg
Procedure: Forty (40) male BALB/c mice (Biological E Limited, Hyderabad (CPCSEA registration number: 36/99/CPCSEA)) were divided into four (4) groups consisting of ten (10) mice each. Animals were randomized based on their body weight. The groups were designated as Group-I (Naïve), Group-II (IMQ; vehicle (PEG 400 and HPBCD)), Group-III (IMQ; Compound 2 (2.5 mg/kg)) and […] (IMQ; cyclophosphamide (10 mg/kg)).
A small area on the dorsum of each mouse was shaved, ensuring that these areas were of equal size/area. Psoriasis was induced in Groups II to IV by topical application of 50 mg of IMQ cream daily from Day 1 to Day 6 on the dorsum of the animals. On Day 1 and Day 2 of the study, four hours after topical application of IMQ, Compound 2 or positive control (cyclophosphamide) or vehicle were administered to animals in pertinent groups. Of note, animals in Group II and Group III were subjected to subcutaneous injections, whereas animals in Group IV received oral administration. The Compound 2, vehicle and cyclophosphamide treatment was terminated on Day 2. These groups of animals were maintained on daily IMQ treatments until Day 6. On Day 7, the psoriasis-induced animals were re-randomized into 3 groups consisting of 10 animals each based on Cumulative Disease Activity Index (CDAI). From Day 7 to Day 9, animals received vehicle or positive control or Compound 2. Of note, on these days animals were not treated with IMQ. From Day 10 to Day 14, the animals were treated alternatively with IMQ (Days 10, 12 and 14), or vehicle, positive control or Compound 2 (Days 11, 13).
All animals were observed daily for a period of 16 days for gross observations, body weight and feed and water intake. On Days 1 and 2, scorings of erythema, scaling, folding and thickening of skin were recorded 2 hours after administration of vehicle/positive control/test compounds, and on Days 3 to 14 scorings were recorded 4 hours after IMQ application, or administration of positive control, vehicle or Compound 2.
Vehicle was prepared by dissolving 40 mg of HPBCD in 70.0 mL of distilled water. Compound 2 was prepared by dissolving 3.59 mg in 0.5% PVP and 0.5% Pluronic. Cyclophosphamide was prepared by dissolving 500 mg of CMC in 100 mL distilled water.
The experimental results shown in Table 10 are expressed as mean±SEM. Data was assessed using one-way ANOVA, and post hoc analysis was performed using Dunnett's test.

## O=C(/C=C\n1cnc(-c2cc(C(F)(F)F)cc(C(F)(F)F)c2)n1)NNC(=O)C(=O)N1CCOCC1 [Compound 12, (Z)-3-(3-(3,5-bis(trifluoromethyl)phenyl)-1H-1,2,4-triazol-1-yl)-N′-(2-morpholino-2-oxoacetyl)acrylohydrazide]
NF-κB
  IC50: 1460 nM

## COc1cc(-c2ncn(/C=C\C(=O)OC(C)C)n2)cc(C(F)(F)F)c1 [Compound X-1]
[1]
  AUCInf: below the limit of detection
[2]; dosed po
  levels in the brain: below the quantitation limit

## O=C(/C=C\n1cnc(-c2cc(C(F)(F)F)cc(C(F)(F)F)c2)n1)N1CC(F)(F)C1 [Compound X-3]
[2]; mice, 10 mg/kg po, 2 hours post-dose
  B:P: 5.0

## N.N.[Cl][Pt][Cl] [cisplatin, reference compound]
A549 xenograft tumors; Compound 2 5 or 10 mg/kg PO, cisplatin 5 mg/kg IP
  tumor growth versus vehicle control group (mean AUC of tumor volume, one-way ANOVA): no statistically significant reduction in tumor growth
A549 xenograft tumors; Day 1
  mean tumor volume: 104 mm^3
A549 xenograft tumors; Day 29
  mean tumor volume: 1136 mm^3

## O=P1(N(CCCl)CCCl)NCCCO1 (stereo not drawn) [cyclophosphamide, reference compound]
IMQ-induced psoriasis; Day 7, 4 hr. post-IMQ/drug administration readings
  Rate of reduction of DAI, % change from 1st dose administration: 23.3%
IMQ-induced psoriasis; Day 7, pre-IMQ/drug administration readings
  Rate of reduction of DAI, % change from 1st dose administration: 0.0%
IMQ-induced psoriasis; Day 8, 4 hr. post-IMQ/drug administration readings
  Rate of reduction of DAI, % change from 1st dose administration: 20.9%
IMQ-induced psoriasis; Day 8, pre-IMQ/drug administration readings
  Rate of reduction of DAI, % change from 1st dose administration: 16.3%
IMQ-induced psoriasis; Day 9, 4 hr. post-IMQ/drug administration readings
  Rate of reduction of DAI, % change from 1st dose administration: −41.9%
IMQ-induced psoriasis; Day 9, pre-IMQ/drug administration readings
  Rate of reduction of DAI, % change from 1st dose administration: −39.5%
IMQ-induced psoriasis; Day 10, 4 hr. post-IMQ/drug administration readings
  Rate of reduction of DAI, % change from 1st dose administration: −86.0%
IMQ-induced psoriasis; Day 10, pre-IMQ/drug administration readings
  Rate of reduction of DAI, % change from 1st dose administration: −79.1%
IMQ-induced psoriasis; Day 11, 4 hr. post-IMQ/drug administration readings
  Rate of reduction of DAI, % change from 1st dose administration: −25.6%
IMQ-induced psoriasis; Day 11, pre-IMQ/drug administration readings
  Rate of reduction of DAI, % change from 1st dose administration: −25.6%
IMQ-induced psoriasis; Day 12, 4 hr. post-IMQ/drug administration readings
  Rate of reduction of DAI, % change from 1st dose administration: −34.9%
IMQ-induced psoriasis; Day 12, pre-IMQ/drug administration readings
  Rate of reduction of DAI, % change from 1st dose administration: −39.5%
IMQ-induced psoriasis; Day 13, 4 hr. post-IMQ/drug administration readings
  Rate of reduction of DAI, % change from 1st dose administration: −32.6%
IMQ-induced psoriasis; Day 13, pre-IMQ/drug administration readings
  Rate of reduction of DAI, % change from 1st dose administration: −25.6%
IMQ-induced psoriasis; Day 14, 4 hr. post-IMQ/drug administration readings
  Rate of reduction of DAI, % change from 1st dose administration: −32.6%
IMQ-induced psoriasis; Day 14, pre-IMQ/drug administration readings
  Rate of reduction of DAI, % change from 1st dose administration: −34.9%
IMQ-induced psoriasis; Day 15, pre-IMQ/drug administration readings
  Rate of reduction of DAI, % change from 1st dose administration: −41.9%
